Assay results reported in US6914045B2, “Glycopeptide antibiotics” (Wyeth Holdings Corporation, priority 2001, dated 2005).
≈ marks a conversion by molar mass, not a printed value.

Key:
Test in all cases: in vitro antibacterial evaluation, MIC by broth dilution
Format in all cases: cell-based
Staphylococcus sp. = conditions: broth dilution, 18 hours at 35° C.
Method in brief: (§1)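 MIC, the lowest antibiotic concentration preventing growth, was read across 64-0.06 μg/mL with 5×10^5 CFU/mL inoculum. Method followed NCCLS M7-A2 broth dilution using Mueller-Hinton II; Gram-positive strains covered recent methicillin-, penicillin- and/or vancomycin-resistant clinical isolates.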

Enterococcus sp. = conditions: broth dilution, 18 hours at 35° C.
Method in brief: as §1

Streptococcus sp. = conditions: broth dilution, 18 hours at 35° C.
Method in brief: as §1

Escherichia coli = conditions: 18 hours at 35° C.

MIC Coagulase Negative Staphylococcus (GC 4547) (Staphylococcus sp.): 4 µg/mL (≈ 2.73 µM) | MIC Coagulase Negative Staphylococcus (GC 4548) (Staphylococcus sp.): 2 µg/mL (≈ 1.36 µM) | MIC Coagulase Negative Staphylococcus (GC 4549) (Staphylococcus sp.): 2 µg/mL (≈ 1.36 µM) | MIC Coagulase Negative Staphylococcus (GC 4551) (Staphylococcus sp.): 2 µg/mL (≈ 1.36 µM) | MIC Coagulase Negative Staphylococcus (GC 6257) (Staphylococcus sp.): 2 µg/mL (≈ 1.36 µM) | MIC Staphylococcus aureus (ATCC 29213) (Staphylococcus sp.): 4 µg/mL (≈ 2.73 µM) | MIC Staphylococcus aureus (GC 1131) (Staphylococcus sp.): 4 µg/mL (≈ 2.73 µM) | MIC Staphylococcus aureus (GC 3051) (Staphylococcus sp.): 0.5 µg/mL (≈ 0.341 µM) | MIC Staphylococcus aureus (GC 3053) (Staphylococcus sp.): 4 µg/mL (≈ 2.73 µM) | MIC Staphylococcus aureus (GC 4541) (Staphylococcus sp.): 1 µg/mL (≈ 0.682 µM) | MIC Staphylococcus aureus (GC 4542) (Staphylococcus sp.): 2 µg/mL (≈ 1.36 µM) | MIC Staphylococcus aureus (GC 4544) (Staphylococcus sp.): 4 µg/mL (≈ 2.73 µM) | MIC Staphylococcus aureus (GC 4545) (Staphylococcus sp.): 4 µg/mL (≈ 2.73 µM) | MIC Staphylococcus aureus-SMITH (GC 4543) (Staphylococcus sp.): 2 µg/mL (≈ 1.36 µM) | MIC Staphylococcus aureus (ATCC 29213) (Staphylococcus sp.; strain ATCC 29213): 4 µg/mL (≈ 2.73 µM) | MIC Staphylococcus aureus (GC 1131) (Staphylococcus sp.; strain GC 1131): 4 µg/mL (≈ 2.73 µM) | MIC Staphylococcus aureus (GC 3051) (Staphylococcus sp.; strain GC 3051): 0.5 µg/mL (≈ 0.341 µM) | MIC Staphylococcus aureus (GC 3053) (Staphylococcus sp.; strain GC 3053): 4 µg/mL (≈ 2.73 µM) | MIC Staphylococcus aureus (GC 4541) (Staphylococcus sp.; strain GC 4541): 1 µg/mL (≈ 0.682 µM) | MIC Staphylococcus aureus (GC 4542) (Staphylococcus sp.; strain GC 4542): 2 µg/mL (≈ 1.36 µM) | MIC Staphylococcus aureus-SMITH (GC 4543) (Staphylococcus sp.; strain GC 4543): 2 µg/mL (≈ 1.36 µM) | MIC Staphylococcus aureus (GC 4544) (Staphylococcus sp.; strain GC 4544): 4 µg/mL (≈ 2.73 µM) | MIC Staphylococcus aureus (GC 4545) (Staphylococcus sp.; strain GC 4545): 4 µg/mL (≈ 2.73 µM) | MIC Coagulase Negative Staphylococcus (GC 4547) (Staphylococcus sp.; strain GC 4547): 4 µg/mL (≈ 2.73 µM) | MIC Coagulase Negative Staphylococcus (GC 4548) (Staphylococcus sp.; strain GC 4548): 2 µg/mL (≈ 1.36 µM) | MIC Coagulase Negative Staphylococcus (GC 4549) (Staphylococcus sp.; strain GC 4549): 2 µg/mL (≈ 1.36 µM) | MIC Coagulase Negative Staphylococcus (GC 4551) (Staphylococcus sp.; strain GC 4551): 2 µg/mL (≈ 1.36 µM) | MIC Coagulase Negative Staphylococcus (GC 6257) (Staphylococcus sp.; strain GC 6257): 2 µg/mL (≈ 1.36 µM) | MIC Enterococcus avium (GC 4558) (Enterococcus sp.): 4 µg/mL (≈ 2.73 µM) | MIC Enterococcus faecalis (ATCC 29212) (Enterococcus sp.): 16 µg/mL (≈ 10.9 µM) | MIC Enterococcus faecalis (GC 2242) (Enterococcus sp.): 16 µg/mL (≈ 10.9 µM) | MIC Enterococcus faecalis (GC 2691) (Enterococcus sp.): 8 µg/mL (≈ 5.46 µM) | MIC Enterococcus faecalis (GC 3059) (Enterococcus sp.): 8 µg/mL (≈ 5.46 µM) | MIC Enterococcus faecalis (GC 4552) (Enterococcus sp.): 16 µg/mL (≈ 10.9 µM) | MIC Enterococcus faecalis (GC 4553) (Enterococcus sp.): 16 µg/mL (≈ 10.9 µM) | MIC Enterococcus faecalis (GC 4554) (Enterococcus sp.): 16 µg/mL (≈ 10.9 µM) | MIC Enterococcus faecalis (GC 6189) (Enterococcus sp.): 8 µg/mL (≈ 5.46 µM) | MIC Enterococcus faecium (GC 2243) (Enterococcus sp.): 16 µg/mL (≈ 10.9 µM) | MIC Enterococcus faecium (GC 4556) (Enterococcus sp.): 16 µg/mL (≈ 10.9 µM) | MIC Enterococcus faecium (GC 4557) (Enterococcus sp.): 2 µg/mL (≈ 1.36 µM) | MIC Enterococcus faecalis (ATCC 29212) (Enterococcus sp.; strain ATCC 29212): 16 µg/mL (≈ 10.9 µM) | MIC Enterococcus faecium (GC 2243) (Enterococcus sp.; strain GC 2243): 16 µg/mL (≈ 10.9 µM) | MIC Enterococcus faecalis (GC 4552) (Enterococcus sp.; strain GC 4552): 16 µg/mL (≈ 10.9 µM) | MIC Enterococcus faecalis (GC 4553) (Enterococcus sp.; strain GC 4553): 16 µg/mL (≈ 10.9 µM) | MIC Enterococcus faecalis (GC 4554) (Enterococcus sp.; strain GC 4554): 16 µg/mL (≈ 10.9 µM) | MIC Enterococcus faecium (GC 4556) (Enterococcus sp.; strain GC 4556): 16 µg/mL (≈ 10.9 µM) | MIC Enterococcus faecium (GC 4557) (Enterococcus sp.; strain GC 4557): 2 µg/mL (≈ 1.36 µM) | MIC Enterococcus avium (GC 4558) (Enterococcus sp.; strain GC 4558): 4 µg/mL (≈ 2.73 µM) | MIC Enterococcus faecalis (GC 6189) (Enterococcus sp.; strain GC 6189): 8 µg/mL (≈ 5.46 µM) | MIC Enterococcus faecalis (GC 2242) (Enterococcus sp.; inoculum 5×10^5 CFU/mL, strain GC 2242): 16 µg/mL (≈ 10.9 µM) | MIC Enterococcus faecalis (GC 2691) (Enterococcus sp.; inoculum 5×10^5 CFU/mL, strain GC 2691): 8 µg/mL (≈ 5.46 µM) | MIC Enterococcus faecalis (GC 3059) (Enterococcus sp.; inoculum 5×10^5 CFU/mL, strain GC 3059): 8 µg/mL (≈ 5.46 µM) | MIC Streptococcus agalactiae (GC 4564) (Streptococcus sp.): 0.5 µg/mL (≈ 0.341 µM) | MIC Streptococcus pneumoniae (ATCC 6301) (Streptococcus sp.): <0.12 µg/mL | MIC Streptococcus pneumoniae (GC 1894) (Streptococcus sp.): <0.12 µg/mL | MIC Streptococcus pneumoniae (GC 4565) (Streptococcus sp.): 0.25 µg/mL (≈ 0.171 µM) | MIC Streptococcus pyogenes (GC 4563) (Streptococcus sp.): 0.5 µg/mL (≈ 0.341 µM) | MIC Streptococcus pneumoniae (ATCC 6301) (Streptococcus sp.; inoculum 5×10^5 CFU/mL, strain ATCC 6301): <0.12 µg/mL | MIC Streptococcus pneumoniae (GC 1894) (Streptococcus sp.; inoculum 5×10^5 CFU/mL, strain GC 1894): <0.12 µg/mL | MIC Streptococcus pyogenes (GC 4563) (Streptococcus sp.; inoculum 5×10^5 CFU/mL, strain GC 4563): 0.5 µg/mL (≈ 0.341 µM) | MIC Streptococcus agalactiae (GC 4564) (Streptococcus sp.; inoculum 5×10^5 CFU/mL, strain GC 4564): 0.5 µg/mL (≈ 0.341 µM) | MIC Streptococcus pneumoniae (GC 4565) (Streptococcus sp.; inoculum 5×10^5 CFU/mL, strain GC 4565): 0.25 µg/mL (≈ 0.171 µM) | MIC Escherichia coli (ATCC 25922) (Escherichia coli): 128 µg/mL (≈ 87.3 µM) | MIC Escherichia coli (GC 4559) (Escherichia coli): >128 µg/mL | MIC Escherichia coli (GC 4560) (Escherichia coli): 2 µg/mL (≈ 1.36 µM)
SMILES: COc1ccc(COCC2OC(OC3C(CO)OC(Oc4ccc(CC5NC(=O)C(C(C)c6ccccc6)NC(=O)CNC(=O)C(CO)NC(=O)C(C(O)C6CNC(=N)N6C6OC(CO)C(O)C(O)C6O)NC(=O)C(C(O)C6CNC(=N)N6)NC5=O)cc4)C(O)C3O)C(O)C(O)C2O)c2ccccc12 (stereo not shown) [Example 240]
MIC Staphylococcus haemolyticus (GC 4546) (Staphylococcus sp.): 2 µg/mL (≈ 1.36 µM) | MIC Staphylococcus haemolyticus (GC 4546) (Staphylococcus sp.; strain GC 4546): 2 µg/mL (≈ 1.36 µM)
